# Data taken from patent publication US20170157192A1, “USE OF THE CHINESE MEDICINE COMPOSITION AND DIANXIANNING IN THE PREPARATION OF A MEDICAMENT FOR PREVENTING OR TREATING ALZHEIMER'S DISEASES” (Lanzhou University, priority 2014, published 2017).
# Counter-ions that a name gives are not always drawn.
# Assays:
# [1] = tested on: transgenic C. elegans strain CL4176 expressing human Aβ; settings: 2.16 mg/mL; it has been reported; cited from earlier work
# [2] = tested on: transgenic C. elegans strain CL4176 expressing human Aβ; test: Aβ-induced paralysis in transgenic C. elegans strain CL4176; type: in vivo, Caenorhabditis elegans; settings: Example 2, FIG. 1, dose-dependent
# Text: The present invention employed the transgenic C. elegans strain CL4176 as a pathological model to evaluate the effect of the Chinese medicine and DXN on preventing or treating AD. The principle of Aβ theory of AD is based on that Aβ aggregates in the cerebral cortex and hippocampus and subsequently forms senile plaques (SP), which is one of the most major pathological features of AD. Toxic Aβ can effectively weaken the structure and function of synapses, and cause memory impairment on the AD patients. Transgenic C. elegans strain CL4176 which expresses the human Aβ species in the muscle tissue that can induce Aβ-dependent paralysis at 25° C. was used in the present invention. Aβ aggregates in the muscle tissue, eventually resulting in the paralysis of CL4176. The medicament acts on C. elegans strain CL4176.
# (1) C. elegans CL4176 is purchased from Caenorhabditis Genetics Center; which is a transgenic strain and muscle-specific expression of human Aβ can be induced at 25° C., and Aβ is aggregated in muscle tissue, resulting in the paralysis of C. elegans. CL4176 worm was used in the invention as a pathological model to screen and evaluate the anti-AD actions of the Chinese medicine compositions and DXN.
# The synchronized C. elegans eggs were placed onto solid NGM coated with OP50 and containing different concentration of Memantine Hydrochloride. The blank control is a NMG medium coated with OP50 and added with the same volume of ddH2O to replace the Memantine Hydrochloride. The worms were cultured at 16° C. for 3 days to L3 larvae (about 60 worms per plate). The results are presented as the average of three biological replicates.
# In order to induce the Aβ expression, the culture temperature of transgenic L3 larvae C. elegans CL4176 was shifted from 16° C. to 25° C. for 34 h. Then paralysis individuals were counted under a dissecting stereo microscope at 2 h intervals until all worms became paralyzed.
# The synchronized C. elegans eggs were placed onto solid NGM coated with OP50 and containing working concentration of the Chinese medicine compositions. […]
# C. elegans CL4176 = test: Toxicity on growth and development (body length) of C. elegans; type: in vivo, Caenorhabditis elegans; settings: Example 2, FIG. 1
# Experimental: C. elegans are sensitive to environmental changes, and drug toxicity can be accurately evaluated by using C. elegans. The body length is one of the most commonly used indictors of developmental toxicity.
# After the end of paralysis experiment, worms were immediately placed at 50° C. for 15 min to straighten the body of every worm. The worms were observed and photographed under a microscope, and measured the length of every worm using MvImage system.
compound,measurement,setting,value
"CC12CC3CC(C)(C1)CC(N)(C3)C2 [Menantine Hydrochloride, 1-amino-3,5-dimethyl amantadine hydrochloride]",delay of Aβ-induced paralysis in transgenic CL4176 (reported),[1],significantly delay Aβ-induced paralysis
same,delay of Aβ-induced paralysis of CL4176,[2]; 4.32 μg/mL in NGM,significantly delayed the paralysis
same,delay of Aβ-induced paralysis of CL4176,[2]; 0.86m/mL in NGM,significantly delayed the paralysis
same,delay of Aβ-induced paralysis of CL4176,[2]; 21.58m/mL in NGM,significantly delayed the paralysis
same,inhibition of development of C. elegans,C. elegans CL4176; 107.88 m/mL in NGM,strongly inhibit the development
same,inhibition of development of C. elegans,C. elegans CL4176; 215.76 m/mL in NGM,strongly inhibit the development
